From patent US8951756B2, “Alkaline feed” (Hoffmann-La Roche Inc., priority 2010, dated 2015)
Converted amounts (≈) assume the structure as drawn.

Key:
physchem [1] = conditions: water
[2] = at 20 °C; cited from earlier work
physchem [3] = conditions: aqueous buffer, thermodynamic from solid
Protocol: (§1) The calculated amount of Leucine was weighted into a 500 ml flask. After addition of 250 ml deionized water the solution is sterilized by autoclavation. Thereafter 250 ml of a 25% (w/v) ammonia solution is added and determined whether the Leucine was dissolved or not. After dissolution of the Leucine the final volume of the solution was determined.

[4] = Determination of solubility of Leucine in an ammonia solution; conditions: for soluble: 250 ml water + 250 ml 25% (w/v) ammonia solution
Protocol: as §1

For NC(=O)CC[C@H](N)C(=O)O [glutamine], which solubility (physchem [1]; 18 °C) is on record?
Its solubility is < 50 mg/mL.

Which solubility (physchem [1]; 20 °C) does the source give for N[C@@H](Cc1c[nH]cn1)C(=O)O [histidine] here?
The solubility was < 50 mg/mL.

Which solubility in water [2] does the source give for CC[C@H](C)[C@H](N)C(=O)O [isoleucine] here?
The solubility in water was 40 g/L (≈ 305 mM).

What about the solubility (physchem [1]; 20 °C) of the same compound?
Its solubility is < 50 mg/mL.

What does the source list for CC(C)C[C@H](N)C(=O)O [leucine]?
solubility (physchem [1]; 20 °C): < 50 mg/mL; solubility (physchem [3]): 76 mg/mL (≈ 579 mM); solubility in alkaline solution relative to solubility in water ([4]; 12.5% (w/v) ammonia versus water at 20 °C): more than three times; soluble ([4]; Leucine concentration 17 g/l): yes; soluble ([4]; Leucine concentration 18 g/l): yes; soluble ([4]; Leucine concentration 19 g/l): yes; soluble ([4]; Leucine concentration 20 g/l): yes; soluble ([4]; Leucine concentration 21 g/l): yes; soluble ([4]; Leucine concentration 25 g/l): yes; soluble ([4]; Leucine concentration 30 g/l): yes; soluble ([4]; Leucine concentration 40 g/l): yes; soluble ([4]; Leucine concentration 50 g/l): yes; soluble ([4]; Leucine concentration 60 g/l): yes; soluble ([4]; Leucine concentration 70 g/l): yes; soluble ([4]; Leucine concentration 71 g/l): yes; soluble ([4]; Leucine concentration 72 g/l): yes; soluble ([4]; Leucine concentration 73 g/l): yes; soluble ([4]; Leucine concentration 74 g/l): yes; soluble ([4]; Leucine concentration 75 g/l): yes; soluble ([4]; Leucine concentration 76 g/l): yes; soluble ([4]; Leucine concentration 77 g/l): no

With CSCC[C@H](N)C(=O)O [methionine] as the compound, how does the solubility (physchem [1]; 20 °C) read?
Its solubility is < 50 mg/mL.

Which solubility (physchem [1]; 20 °C) does the source give for N[C@@H](Cc1ccccc1)C(=O)O [phenylalanine] here?
The solubility was < 50 mg/mL.

Which results are given for N[C@@H](Cc1c[nH]c2ccccc12)C(=O)O [tryptophane]?
solubility in water [2]: 10 g/L (≈ 49 mM); solubility (physchem [1]; 20 °C): < 50 mg/mL

For CC(C)[C@H](N)C(=O)O [valine], which solubility in water [2] is on record?
The solubility in water was 88 g/L (≈ 751 mM).
